This is an account of results in patent publication US8012991B2, “Pyridoindolone derivatives substituted in the 3-position by a phenyl, their preparation and their application in therapeutics” (Sanofi-Aventis, priority 2002, dated 2011).

In general, melting point refers to the temperature of the solid-liquid transition.

Turning to `Cc1cc(C)cc(-c2cc3c4cc(C)ccc4n(C)c3n(C)c2=O)c1` [Compound 1, 3-(3,5-Dimethylphenyl)-1,6,9-trimethyl-1,9-dihydro-2H-pyrido[2,3-b]indol-2-one], the melting point amounted to 210 °C.
The figure for `Cc1ccc2c(c1)c1cc(-c3ccc(Cl)cc3Cl)c(=O)n(C)c1n2C` [Compound 2, 3-(2,4-Dichlorophenyl)-1,6,9-trimethyl-1,9-dihydro-2H-pyrido[2,3-b]indol-2-one] is 170 °C; for `COc1ccc2c(c1)c1cc(-c3ccc(Cl)cc3Cl)c(=O)n(C)c1n2C` [Compound 21, 3-(2,4-Dichlorophenyl)-6-methoxy-1,9-dimethyl-1,9-dihydro-2H-pyrido[2,3-b]indol-2-one] it is 130 °C.
